Laboratory results from the supplement of paper PMC10307832.

Legend:
Assay in all cases: relative viability (nuclei count vs DMSO), 5 days (fraction); higher = more cells survive
[1] = compound: COc1cc2nc(N3CCCN(C)CC3)nc(NC3CCN(Cc4ccccc4)CC3)c2cc1OC + CCNC(=O)c1noc(-c2cc(C(C)C)c(O)cc2O)c1-c1ccc(CN2CCOCC2)cc1 [Luminespib] (partner 0.01 µM)
Outline: (§1)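 Values are medians from duplicate plates. Each reflects relative viability, defined as the nuclei count of treated wells over that of vehicle wells. Lung cancer cell lines in 1536-well plates were pin-tool dosed one day after seeding with one drug alone or with a fixed anchor-drug dose plus five library-drug doses (not always all listed) in √10 steps, then fixed, stained and imaged at 4× after 5 days.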

[2] = compound: Cc1cc([C@@H](C)Nc2ccccc2C(=O)O)c2nc(N3CCOCC3)cc(=O)n2c1 [AZD6482] + CS(=O)(=O)N1CCN(Cc2cc3nc(-c4cccc5[nH]ncc45)nc(N4CCOCC4)c3s2)CC1 [Pictilisib] (partner 1 µM)
Outline: as §1

[3] = compound: Cc1cc([C@@H](C)Nc2ccccc2C(=O)O)c2nc(N3CCOCC3)cc(=O)n2c1 [AZD6482] + O=C(c1cc(Cc2n[nH]c(=O)c3ccccc23)ccc1F)N1CCN(C(=O)C2CC2)CC1 [Olaparib] (partner 8 µM)
Outline: as §1

[4] = compound: COc1cc2nc(N3CCCN(C)CC3)nc(NC3CCN(Cc4ccccc4)CC3)c2cc1OC + CC(=O)Nc1cccc(-n2c(=O)n(C3CC3)c(=O)c3c(Nc4ccc(I)cc4F)n(C)c(=O)c(C)c32)c1 [Trametinib] (partner 0.02 µM)
Outline: as §1

Cell Line	relative viability ([1]; first compound 0.2 µM)	relative viability ([1]; first compound 0.6325 µM)	relative viability ([1]; first compound 2 µM)	relative viability ([1]; first compound 6.325 µM)	relative viability ([2]; first compound 0.08 µM)	relative viability ([2]; first compound 0.253 µM)	relative viability ([2]; first compound 0.8 µM)	relative viability ([2]; first compound 2.53 µM)	relative viability ([2]; first compound 8 µM)	relative viability ([3]; first compound 0.08 µM)	relative viability ([3]; first compound 0.253 µM)	relative viability ([3]; first compound 0.8 µM)	relative viability ([3]; first compound 2.53 µM)	relative viability ([3]; first compound 8 µM)	relative viability ([4]; first compound 0.2 µM)	relative viability ([4]; first compound 0.6325 µM)	relative viability ([4]; first compound 2 µM)	relative viability ([4]; first compound 6.325 µM)
201T	1.09	1.12	1.1	1.08	0.612	0.672	0.66	0.506	0.619	0.839	0.8	0.872	0.727	0.848	0.701	0.702	0.71	0.675
A549					0.522	0.472	0.523	0.264	0.386	0.26	0.33	0.37		0.315				
A-427	0.934	0.784	0.8	0.997	0.655	0.697	0.735	0.601	0.682	0.5	0.718	0.739	0.514	0.66	0.756	0.677	0.739	0.674
ABC-1	0.588	0.52	0.512	0.737	0.789	0.623	0.773	0.686	0.736	0.602	0.464	0.881	0.801	0.52				
BEN	0.415	0.737	0.264	0.516	0.607	0.506	0.655	0.434	0.557	0.915	0.934	0.946	0.875	0.816	1.06	1.04	1.02	1.1
CAL-12T	0.441	0.308	0.337	0.28	0.395		0.571	0.291	0.432	0.746	0.702	0.712	0.595	0.543	0.324	0.329	0.302	0.266
COR-L23	0.752	0.731	0.761	0.614	0.424	0.642	0.765	0.534	0.748	0.272	0.414	0.364	0.195	0.34	0.635	0.466	0.748	0.638
COR-L 105	0.948	0.899	1.02	0.469	0.362	0.388	0.428	0.265	0.309	0.607	0.851	0.726	0.549	0.687	0.429	0.515	0.403	0.439
Calu-6					0.823	0.85	0.846	0.673	0.937	0.516	0.493	0.533	0.527	0.543				
ChaGo-K-1	0.569	0.671	0.74	0.527	0.765		1.15	1.01	0.977	0.399	0.436	0.42	0.431	0.4	0.919	0.882	0.932	0.887
EBC-1					0.314	0.295	0.209	0.197	0.292	0.533	0.675	0.637	0.467	0.301				
EKVX	0.829	0.878	0.831	0.888	0.378	0.326	0.441	0.235	0.467	0.671	0.773	0.855	0.469	0.595	0.316	0.393	0.319	0.278
EMC-BAC-2	1.09	1.17	1.2	1.14	0.487	0.51	0.505	0.374	0.555	0.455	0.479	0.523	0.471	0.44	0.873	0.857	0.899	0.732
EPLC-272H	0.228	0.736	0.262	0.432	0.325		0.297	0.287	0.333	0.567	0.681	0.687	0.463	0.294	0.292	0.333	0.268	0.278
H3255	1.14	0.852	0.878	0.898	0.461	0.434	0.453	0.305	0.47	0.559	0.567	0.596	0.492	0.55	0.593	0.607	0.554	0.537
HARA	0.703	0.467	0.744	0.736	0.254	0.395	0.423		0.59	0.685	1.01	0.943	0.683	0.519	0.686	0.916	0.522	0.746
HCC-15	0.174	0.205	0.342	0.241	0.642	0.651	0.766	0.641	0.849	0.692	0.662	0.737	0.697	0.768	0.44	0.386	0.373	0.379
HCC-44	0.96	1.08	1.34	1.34	0.416	0.589	0.567	0.452	0.531	1	1.11	1.1	1.15	1.08	1.04	1.13	1.1	1.08
HCC-78					0.218	0.186	0.184	0.182	0.214	0.663	0.641	0.533	0.383	0.416	0.734	0.695	0.723	0.685
HCC-366					0.115	0.106	0.214	0.127	0.129	0.328	0.342	0.433	0.259	0.282	0.335	0.401	0.358	0.239
HCC-827	0.627	0.555	0.634	0.612	0.899	0.814	0.848	0.636	0.628	0.653	0.594	0.515	0.432	0.996	0.533	0.558	0.518	0.542

Cell Line	relative viability ([1]; first compound 0.2 µM)	relative viability ([1]; first compound 0.6325 µM)	relative viability ([1]; first compound 2 µM)	relative viability ([1]; first compound 6.325 µM)	relative viability ([2]; first compound 0.08 µM)	relative viability ([2]; first compound 0.253 µM)	relative viability ([2]; first compound 0.8 µM)	relative viability ([2]; first compound 2.53 µM)	relative viability ([2]; first compound 8 µM)	relative viability ([3]; first compound 0.08 µM)	relative viability ([3]; first compound 0.253 µM)	relative viability ([3]; first compound 0.8 µM)	relative viability ([3]; first compound 2.53 µM)	relative viability ([3]; first compound 8 µM)	relative viability ([4]; first compound 0.2 µM)	relative viability ([4]; first compound 0.6325 µM)	relative viability ([4]; first compound 2 µM)	relative viability ([4]; first compound 6.325 µM)
HOP-62	0.907	0.856	0.817	0.952	0.76	0.741	0.8	0.556	0.667	0.444	0.539	0.453	0.459	0.552	0.396	0.434	0.459	0.361
IA-LM					0.342	0.247	0.338		0.366	0.982	0.995	1.15		0.759				
LC-2-ad	0.961	0.973	1.21	1.06	0.36	0.426	0.504	0.236	0.567	0.727	0.735	0.795	0.64	0.803	0.934	0.871	0.942	0.941
LCLC-97TM1	0.79	0.73	0.822	0.777	0.246	0.175	0.245	0.176	0.146	0.403	0.285	0.413		0.244	0.181	0.166	0.225	0.195
LCLC-103H	0.905	1.08	0.976	1.01	0.6	0.627	0.636	0.439	0.591	0.677	0.745	0.648	0.543	0.569	0.682	0.745	0.743	0.671
LK-2	0.188	0.188	0.164	0.186	0.574		0.657	0.515	0.677	0.916	0.731	0.581	0.73	0.432	0.813	0.928	0.633	0.881
LOU-NH91	0.383	0.295	0.359	0.367	0.491	0.513	0.516	0.48	0.493	0.851	0.917	0.898	0.595	0.755	0.801	0.778	0.781	0.811
LU99A	0.258	0.246	0.225	0.231	0.339	0.335	0.366	0.25	0.34	0.259	0.273	0.255	0.28	0.24	0.531	0.47	0.541	0.526
LXF-289	0.592	0.651	0.729	0.676	0.66	0.736	0.739	0.638	0.745	1.02	1.05	1.11	0.986	0.918	0.651	0.701	0.634	0.625
NCI-H23	0.223	0.209	0.206	0.187	0.465	0.482	0.452	0.356	0.494	0.26	0.371	0.411	0.266	0.247	0.358	0.362	0.44	0.342
NCI-H322M	0.766	0.943	0.799	0.832	0.485	0.399	0.475	0.353	0.498	0.671	0.761	0.749	0.494	0.701	0.503	0.495	0.531	0.512
NCI-H358	0.506	0.275	0.434	0.208	0.274	0.386	0.276	0.202	0.358	0.535	0.554	0.624	0.282	0.52	0.132	0.16	0.121	0.126
NCI-H441	0.318	0.368	0.334	0.584	0.453	0.389	0.408	0.32	0.431	0.604	0.525	0.541		0.449	0.366	0.532	0.422	0.33
NCI-H522	1.03	1.23	1.32	1.12						0.573	0.697	0.634	0.596	0.577	0.754	0.728	0.749	0.817
NCI-H1299					0.615	0.684	0.742	0.394	0.678	0.995	1.02	1.07	0.992	0.934				
NCI-H1563	0.544	0.515	0.506	0.507	0.617	0.575	0.646	0.677	0.673									
NCI-H1623	0.493	0.586	0.502	0.513														
NCI-H1648										0.575	0.823	0.715		0.638		0.511		0.532
NCI-H1703					0.245	0.239	0.233	0.204	0.191	0.342	0.456	0.258	0.133	0.167				
NCI-H2342	0.689	0.673	0.677	0.75						0.346	0.368	0.4	0.42	0.329	0.916	0.963	0.818	0.803
SW 900	0.143	0.188	0.18	0.156						0.678	0.665	0.661	0.623	0.616	0.661	0.753	0.584	0.688
